Reference: patent US20100292205A1, “Pyrimidone Compounds As GSK-3 Inhibitors” (PFIZER INC., priority 2006, published 2010)
pIC50: −log10 of the molar value.

molecular target: T1, Recombinant human GSK3β (Homo sapiens, UniProt P49841); test: GSK-3β (Glycogen Synthase Kinase) cell free enzyme assay; type: biochemical; conditions: 1 μM; Examples 201-221
T1 construct: His-tag; made in house; host or cells: Sf9 insect cells / baculovirus
Procedure, shortened: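 Recombinant human GSK3β, expressed in SF9/baculovirus cells and His-tag purified on Ni-NTA Superflow, was preincubated with test agent for 30 minutes at room temperature. Substrate mix was then added to start the reaction in 8 mM MOPS (pH 7.0), 10 mM magnesium acetate, 0.2 mM EDTA, 1 mM DTT, 2 uM cold ATP, 0.025 uCi/well [33P]ATP (120 uL) and 1.0 uM biotinylated peptide. Reactions ran at RT for 60 min.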

T1 sequence (P49841 whole entry): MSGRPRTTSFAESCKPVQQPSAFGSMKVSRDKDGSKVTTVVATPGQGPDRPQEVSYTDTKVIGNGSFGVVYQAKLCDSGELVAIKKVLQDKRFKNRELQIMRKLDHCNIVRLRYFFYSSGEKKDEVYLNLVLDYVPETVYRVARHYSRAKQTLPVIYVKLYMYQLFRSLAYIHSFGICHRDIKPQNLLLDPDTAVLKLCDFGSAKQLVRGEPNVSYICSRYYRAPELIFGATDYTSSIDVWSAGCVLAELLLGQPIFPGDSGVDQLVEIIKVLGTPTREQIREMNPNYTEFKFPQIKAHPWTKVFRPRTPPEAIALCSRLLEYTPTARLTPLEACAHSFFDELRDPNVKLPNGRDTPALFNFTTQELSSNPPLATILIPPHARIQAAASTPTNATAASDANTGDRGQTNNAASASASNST

Row | Percent inhibition at 1 μM | Molecule
1 | 89% | Methyl (1R,5S)-3-(1-methyl- 6-oxo-4-pyridin-4-yl-16- dihydropyrimidin-2-yl)-38- diazabicyclo[3.2.1]octane-8- carboxylate [Example 201]
2 | 93% | Methyl (1R,5S)-8-(1-methyl- 6-oxo-4-pyridin-4-yl-16- dihydropyrimidin-2-yl)-38- diazabicyclo[3.2.1]octane-3- carboxylate [Example 202]
3 | 93% | Methyl (3a,S5,S7,aR)-3a- methyl-5-[methyl(1-methyl- 6-oxo-4-pyridin-4-yl-16- dihydropyrimidin-2- yl)amino]octahydro-1H- indole-1-carboxylate [Example 212]

same assay, conditions: cell free enzyme assay; Examples 265-291

Row | Molecule | pIC50
4 | CN(c1nc(-c2ccncc2F)cc(=O)n1C)[C@H]1[C@@H]2CN(c3nnnn3Cc3ccc(C#N)cc3)C[C@@H]21 [Example 271, 4-({5-[(1R,5S,6s)-6-{[4-(3-Fluoropyridin-4-yl)-1-methyl-6-oxo-1,6-dihydropyrimidin-2-yl](methyl)amino}-3-azabicyclo[3.1.0]hex-3-yl]-1H-tetrazol-1-yl}methyl)benzonitrile] | 8.06
5 | CN(c1nc(-c2ccncc2F)cc(=O)n1C)[C@H]1[C@@H]2CN(c3nc4ccccc4[nH]3)C[C@@H]21 [Example 272, 2-{[(1R,5S,6s)-3-(1H-Benzimidazol-2-yl)-3-azabicyclo[3.1.0]hex-6-yl](methyl)amino}-6-(3-fluoropyridin-4-yl)-3-methylpyrimidin-4(3H)-one] | 7.12
6 | CCOCCn1nnnc1N1C[C@@H]2[C@H](C1)[C@H]2N(C)c1nc(-c2ccncc2F)cc(=O)n1C [Example 273, 2-[{(1R,5S,6s)-3-[1-(2-Ethoxyethyl)-1H-tetrazol-5-yl]-3-azabicyclo[3.1.0]hex-6-yl}(methyl)amino]-6-(3-fluoropyridin-4-yl)-3-methylpyrimidin-4(3H)-one] | 7.54
7 | Cc1nnc2c(N3C[C@@H]4[C@H](C3)[C@H]4N(C)c3nc(-c4ccncc4F)cc(=O)n3C)nc(-c3ccccc3)cn12 [Example 274, 6-(3-Fluoropyridin-4-yl)-3-methyl-2-{methyl[(1R,5S,6s)-3-(3-methyl-6-phenyl[1,2,4]triazolo[4,3-a]pyrazin-8-yl)-3-azabicyclo[3.1.0]hex-6-yl]amino}pyrimidin-4(3H)-one] | 6.63
8 | CN(c1nc(-c2ccncc2F)cc(=O)n1C)[C@H]1[C@@H]2CN(c3nnnn3-c3ccccc3F)C[C@@H]21 [Example 275, 2-[{(1R,5S,6s)-3-[1-(2-Fluorophenyl)-1H-tetrazol-5-yl]-3-azabicyclo[3.1.0]hex-6-yl}(methyl)amino]-6-(3-fluoropyridin-4-yl)-3-methylpyrimidin-4(3H)-one] | 8.95
9 | CCOC(=O)c1cccc(-n2nnnc2N2C[C@@H]3[C@H](C2)[C@H]3N(C)c2nc(-c3ccncc3F)cc(=O)n2C)c1 [Example 276, Ethyl 3-{5-[(1R,5S,6s)-6-{[4-(3-fluoropyridin-4-yl)-1-methyl-6-oxo-1,6-dihydropyrimidin-2-yl](methyl)amino}-3-azabicyclo[3.1.0]hex-3-yl]-1H-tetrazol-1-yl}benzoate] | 8.21
10 | Cc1nn(C2CCCC2)c2nc(N3C[C@@H]4[C@H](C3)[C@H]4N(C)c3nc(-c4ccncc4F)cc(=O)n3C)[nH]c(=O)c12 [Example 277, 1-Cyclopentyl-6-[(1R,5S,6s)-6-{[4-(3-fluoropyridin-4-yl)-1-methyl-6-oxo-1,6-dihydropyrimidin-2-yl](methyl)amino}-3-azabicyclo[3.1.0]hex-3-yl]-3-methyl-1,5-dihydro-4H-pyrazolo[3,4-d]pyrimidin-4-one] | 7.29
11 | CC(C)Cc1nn(C)c2c(=O)[nH]c(N3C[C@@H]4[C@H](C3)[C@H]4N(C)c3nc(-c4ccncc4F)cc(=O)n3C)nc12 [Example 278, 5-[(1R,5S,6s)-6-{[4-(3-Fluoropyridin-4-yl)-1-methyl-6-oxo-1,6-dihydropyrimidin-2-yl](methyl)amino}-3-azabicyclo[3.1.0]hex-3-yl]-3-isobutyl-1-methyl-1,6-dihydro-7H-pyrazolo[4,3-d]pyrimidin-7-one] | 6.96
12 | CN(c1nc(-c2ccncc2F)cc(=O)n1C)[C@H]1[C@@H]2CN(c3nnnn3C)C[C@@H]21 [Example 279, 6-(3-Fluoropyridin-4-yl)-3-methyl-2-{methyl[(1R,5S,6s)-3-(1-methyl-1H-tetrazol-5-yl)-3-azabicyclo[3.1.0]hex-6-yl]amino}pyrimidin-4(3H)-one] | 7.23
13 | CN(c1nc(-c2ccncc2F)cc(=O)n1C)[C@H]1[C@@H]2CN(c3nnnn3CC3CC3)C[C@@H]21 [Example 280, 2-[{(1R,5S,6s)-3-[1-(Cyclopropylmethyl)-1H-tetrazol-5-yl]-3-azabicyclo[3.1.0]hex-6-yl}(methyl)amino]-6-(3-fluoropyridin-4-yl)-3-methylpyrimidin-4(3H)-one] | 8.35
14 | CN(c1nc(-c2ccncc2F)cc(=O)n1C)[C@H]1[C@@H]2CN(c3nc4cc(C(F)(F)F)ccc4[nH]3)C[C@@H]21 [Example 281, 6-(3-Fluoropyridin-4-yl)-3-methyl-2-(methyl{(1R,5S,6s)-3-[5-(trifluoromethyl)-1H-benzimidazol-2-yl]-3-azabicyclo[3.1.0]hex-6-yl}amino)pyrimidin-4(3H)-one] | 7.44
15 | CC(C)n1nnnc1N1C[C@@H]2[C@H](C1)[C@H]2N(C)c1nc(-c2ccncc2F)cc(=O)n1C [Example 282, 6-(3-Fluoropyridin-4-yl)-2-{[(1R,5S,6s)-3-(1-isopropyl-1H-tetrazol-5-yl)-3-azabicyclo[3.1.0]hex-6-yl](methyl)amino}-3-methylpyrimidin-4(3H)-one] | 8.49

Continued, values first:

Row | pIC50 | Molecule
16 | 7.25 | CN(c1nc(-c2ccncc2F)cc(=O)n1C)[C@H]1[C@@H]2CN(c3nc4ccccc4s3)C[C@@H]21 [Example 283, 2-{[(1R,5S,6s)-3-(1,3-Benzothiazol-2-yl)-3-azabicyclo[3.1.0]hex-6-yl](methyl)amino}-6-(3-fluoropyridin-4-yl)-3-methylpyrimidin-4(3H)-one]
17 | 7.90 | CN(c1nc(-c2ccncc2F)cc(=O)n1C)[C@H]1[C@@H]2CN(c3nnnn3C3CCCC3)C[C@@H]21 [Example 284, 2-{[(1R,5S,6s)-3-(1-Cyclopentyl-1H-tetrazol-5-yl)-3-azabicyclo[3.1.0]hex-6-yl](methyl)amino}-6-(3-fluoropyridin-4-yl)-3-methylpyrimidin-4(3H)-one]
18 | 5.25 | Cc1nc(N2C[C@@H]3[C@H](C2)[C@H]3N(C)c2nc(-c3ccncc3F)cc(=O)n2C)n2nc(-c3ccccc3Cl)c(I)c2n1 [Example 285, 2-[{(1R,5S,6s)-3-[7-(2-Chlorophenyl)-8-iodo-2-methylpyrazolo[1,5-a][1,3,5]triazin-4-yl]-3-azabicyclo[3.1.0]hex-6-yl}(methyl)amino]-6-(3-fluoropyridin-4-yl)-3-methylpyrimidin-4(3H)-one]
19 | 8.49 | CCOc1cccc(-n2nnnc2N2C[C@@H]3[C@H](C2)[C@H]3N(C)c2nc(-c3ccncc3F)cc(=O)n2C)c1 [Example 286, 2-[{(1R,5S,6s)-3-[1-(3-Ethoxyphenyl)-1H-tetrazol-5-yl]-3-azabicyclo[3.1.0]hex-6-yl}(methyl)amino]-6-(3-fluoropyridin-4-yl)-3-methylpyrimidin-4(3H)-one]
20 | 8.51 | COCC(C)n1nnnc1N1C[C@@H]2[C@H](C1)[C@H]2N(C)c1nc(-c2ccncc2F)cc(=O)n1C (stereo partly drawn) [Example 287, 6-(3-Fluoropyridin-4-yl)-2-[{(1R,5S,6s)-3-[1-(2-methoxy-1-methylethyl)-1H-tetrazol-5-yl]-3-azabicyclo[3.1.0]hex-6-yl}(methyl)amino]-3-methylpyrimidin-4(3H)-one]
21 | 6.94 | CN(c1nc(-c2ccncc2F)cc(=O)n1C)[C@H]1[C@@H]2CN(c3nc4cc(F)ccc4[nH]3)C[C@@H]21 [Example 288, 2-{[(1R,5S,6s)-3-(5-Fluoro-1H-benzimidazol-2-yl)-3-azabicyclo[3.1.0]hex-6-yl](methyl)amino}-6-(3-fluoropyridin-4-yl)-3-methylpyrimidin-4(3H)-one]
22 | 7.60 | COc1ccc2nc(N3C[C@@H]4[C@H](C3)[C@H]4N(C)c3nc(-c4ccncc4F)cc(=O)n3C)sc2c1 [Example 289, 6-(3-Fluoropyridin-4-yl)-2-{[(1R,5S,6s)-3-(6-methoxy-1,3-benzothiazol-2-yl)-3-azabicyclo[3.1.0]hex-6-yl](methyl)amino}-3-methylpyrimidin-4(3H)-one]
23 | 7.56 | CN(c1nc(-c2ccncc2F)cc(=O)n1C)[C@H]1[C@@H]2CN(c3nnnn3Cc3cccc(OC(F)(F)F)c3)C[C@@H]21 [Example 290, 6-(3-Fluoropyridin-4-yl)-3-methyl-2-{methyl[(1R,5S,6s)-3-{1-[3-(trifluoromethoxy)benzyl]-1H-tetrazol-5-yl}-3-azabicyclo[3.1.0]hex-6-yl]amino}pyrimidin-4(3H)-one]
24 | 8.22 | CN(c1nc(-c2ccncc2F)cc(=O)n1C)[C@H]1[C@@H]2CN(c3nnnn3-c3cccc(OC(F)(F)F)c3)C[C@@H]21 [Example 291, 6-(3-Fluoropyridin-4-yl)-3-methyl-2-{methyl[(1R,5S,6s)-3-{1-[3-(trifluoromethoxy)phenyl]-1H-tetrazol-5-yl}-3-azabicyclo[3.1.0]hex-6-yl]amino}pyrimidin-4(3H)-one]
